Test system: human recombinant carboxylesterases
Assay: In vitro metabolic stability (rate of metabolite formation) in human recombinant carboxylesterases
Type: in vitro ADME
Details: human recombinant carboxylesterases 0.1 mg/mL, 1 μM test compound, pH 6.0, 37° C.
Description: Dutch Belted rabbits were euthanized with an overdose of sodium pentobarbital. The corneas were collected and homogenized in ice-cold potassium chloride solution (pH=7.4). The homogenate was centrifuged at 755×g for 30 min at 4° C. and aliquots of the supernatant were stored at or below −70° C. until metabolism experiments were conducted. Prior to storing the homogenates an aliquot was removed for determination of protein concentrations by calculating the 260 nm absorbance using a spectrophotometer. Human recombinant carboxylesterases were purchased from a commercial vendor (BD Gentest™, Bedford, Mass.)
All metabolic stability experiments were performed in triplicate in 96-well plate format. The final incubation mixture contained 1 μM test compound, 0.3 mg/mL corneal protein homogenate or 0.1 mg/mL human recombinant carboxylesterase mixture in a final volume of 0.5 mL 0.1 M potassium phosphate buffer (pH=6.0). The final percentage of solvent in the incubation was less than 1.0% to prevent inhibition of enzymatic activity. Following a pre-incubation at 37° C., test article (i.e. ester linked hybrids) was added to initiate the reaction. At designated time points (typically less than 60 minutes to capture the linear range of metabolite formation), 0.05 mL aliquots were removed from the incubation mixtures using a clean pipet tip and immediately placed in organic solvent to stop any esterase activity.
Hydrolysis of the metabolites was confirmed to be due to esterase activity and not chemical lability. The samples were analyzed by liquid chromatography with mass spectrometry (LC-MS/MS) detection to determine the metabolite concentrations resulting from the metabolism of ester linked hybrids. Internal standards were used to compensate for variability from sample processing, chromatographic elution, mass spectrometer response and ion suppression by matrix components.

Molecule	Rate of formation Metabolite 2 (Moxifloxacin) [nM/min/mg]	Rate of formation Metabolite 1 (Prednisolone) [nM/min/mg]	Rate of formation Metabolite 1 (Betamethasone) (metabolite Betamethasone) [nM/min/mg]	Rate of formation Metabolite 2 (Gatifloxacin) [nM/min/mg]	Rate of formation Metabolite 1 (Dexamethasone) [nM/min/mg]
COc1c(N2C[C@@H]3CCCN[C@@H]3C2)c(F)cc2c(=O)c(C(=O)OC(C)OC(=O)OCC(=O)[C@]3(O)CC[C@@H]4[C@H]5CCC6=CC(=O)C=C[C@@]6(C)C5[C@H](O)C[C@]43C)cn(C3CC3)c12 (relative stereo) [Compound 65, 1-[({2-[(8R,10S,11R,13R,14R,17S)-11,17-dihydroxy-10,13-dimethyl-3-oxo-6,7,8,9,10,11,12,13,14,15,16,17-dodecahydro-3H-cyclopenta[a]phenanthren-17-yl]-2-oxoethoxy}carbonyl)oxy]ethyl rel-1-cyclopropyl-6-fluoro-8-methoxy-7-[(4aS,7aS)-octahydro-6H-pyrrolo[3,4-b]pyridin-6-yl]-4-oxo-1,4-dihydroquinoline-3-carboxylate]	482 ± 72	364 ± 27	–	–	–
COc1c(N2CCN(C(=O)OCOC(=O)CCC(=O)OCC(=O)[C@@]3(O)[C@@H](C)CC4C5CCC6=CC(=O)C=C[C@]6(C)[C@@]5(F)[C@@H](O)C[C@@]43C)C(C)C2)c(F)cc2c(=O)c(C(=O)O)cn(C3CC3)c12 (relative stereo) [Compound 2, rel-1-cyclopropyl-6-fluoro-7-[4-({[(4-{2-[(9R,10S,11S,13S,16S,17R)-9-fluoro-11,17-dihydroxy-10,13,16-trimethyl-3-oxo-6,7,8,9,10,11,12,13,14,15,16,17-dodecahydro-3H-cyclopenta[a]phenanthren-17-yl]-2-oxoethoxy}-4-oxobutanoyl)oxy]methoxy}carbonyl)-3-methylpiperazin-1-yl]-8-methoxy-4-oxo-1,4-dihydroquinoline-3-carboxylic acid]	–	–	109 ± 2	112 ± 4	–
COc1c(N2CCN(C(=O)OCOC(=O)CCC(=O)N[C@@H](C(=O)OCC(=O)[C@]3(O)CCC4C5CCC6=CC(=O)C=C[C@@]6(C)C5[C@H](O)C[C@]43C)C(C)C)C(C)C2)c(F)cc2c(=O)c(C(=O)O)cn(C3CC3)c12 (relative stereo) [Compound 29, rel-1-cyclopropyl-7-{4-[(10R)-14-[(10S,11R,13R,17S)-11,17-dihydroxy-10,13-dimethyl-3-oxo-6,7,8,9,10,11,12,13,14,15,16,17-dodecahydro-3H-cyclopenta[a]phenanthren-17-yl]-5,8,11,14-tetraoxo-10-(propan-2-yl)-2,4,12-trioxa-9-azatetradecan-1-oyl]-3-methylpiperazin-1-yl}-6-fluoro-8-methoxy-4-oxo-1,4-dihydroquinoline-3-carboxylic acid]	–	17.3 ± 0.1	–	36.5 ± 1.1	–
COc1c(N2CCNC(C)C2)c(F)cc2c(=O)c(C(=O)OCOC(=O)CCC(=O)OCC(=O)[C@]3(O)CC[C@@H]4[C@H]5CCC6=CC(=O)C=C[C@@]6(C)C5[C@H](O)C[C@]43C)cn(C3CC3)c12 (relative stereo) [Compound 44, ({[1-cyclopropyl-6-fluoro-8-methoxy-7-(3-methylpiperazin-1-yl)-4-oxo-1,4-dihydroquinolin-3-yl]carbonyl}oxy)methyl 2-[(8R,10S,11R,13R,14R,17S)-11,17-dihydroxy-10,13-dimethyl-3-oxo-6,7,8,9,10,11,12,13,14,15,16,17-dodecahydro-3H-cyclopenta[a]phenanthren-17-yl]-2-oxoethyl rel-butanedioate]	–	365 ± 32	–	760 ± 110	–
COc1c(N2CCN(C(=O)OCOC(=O)CCC(=O)OCC(=O)[C@@]3(O)[C@H](C)CC4C5CCC6=CC(=O)C=C[C@]6(C)[C@@]5(F)[C@@H](O)C[C@@]43C)C(C)C2)c(F)cc2c(=O)c(C(=O)O)cn(C3CC3)c12 (relative stereo) [Compound 11, rel-1-cyclopropyl-6-fluoro-7-[4-({[(4-{2-[(9R,10S,11S,13S,16R,17R)-9-fluoro-11,17-dihydroxy-10,13,16-trimethyl-3-oxo-6,7,8,9,10,11,12,13,14,15,16,17-dodecahydro-3H-cyclopenta[a]phenanthren-17-yl]-2-oxoethoxy}-4-oxobutanoyl)oxy]methoxy}carbonyl)-3-methylpiperazin-1-yl]-8-methoxy-4-oxo-1,4-dihydroquinoline-3-carboxylic acid]	–	–	–	56 ± 2.1	44.5 ± 2.62
COc1c(N2C[C@H]3CCCN[C@H]3C2)c(F)cc2c(=O)c(C(=O)OCCCOC(=O)c3ccc(C(=O)OCC(=O)[C@@]4(O)[C@H](C)C[C@H]5[C@@H]6CCC7=CC(=O)C=C[C@]7(C)[C@@]6(F)[C@@H](O)C[C@@]54C)cc3)cn(C3CC3)c12 (relative stereo) [Compound 54, 3-[({1-cyclopropyl-6-fluoro-8-methoxy-7-[(4aR,7aR)-octahydro-6H-pyrrolo[3,4-b]pyridin-6-yl]-4-oxo-1,4-dihydroquinolin-3-yl}carbonyl)oxy]propyl 2-[(8S,9R,10S,11S,13S,14S,16R,17R)-9-fluoro-11,17-dihydroxy-10,13,16-trimethyl-3-oxo-6,7,8,9,10,11,12,13,14,15,16,17-dodecahydro-3H-cyclopenta[a]phenanthren-17-yl]-2-oxoethyl rel-benzene-1,4-dicarboxylate]	0.717 ± 0.625	–	–	–	67.8 ± 1.78
COc1c(N2CCNC(C)C2)c(F)cc2c(=O)c(C(=O)OCCCOC(=O)CCC(=O)OCC(=O)[C@]3(O)[C@@H](C)C[C@@H]4[C@H]5CCC6=CC(=O)C=C[C@@]6(C)[C@]5(F)[C@H](O)C[C@]43C)cn(C3CC3)c12 (relative stereo) [Compound 18, 3-({[1-cyclopropyl-6-fluoro-8-methoxy-7-(3-methylpiperazin-1-yl)-4-oxo-1,4-dihydroquinolin-3-yl]carbonyl}oxy)propyl 2-[(8R,9S,10R,11R,13R,14R,16S,17S)-9-fluoro-11,17-dihydroxy-10,13,16-trimethyl-3-oxo-6,7,8,9,10,11,12,13,14,15,16,17-dodecahydro-3H-cyclopenta[a]phenanthren-17-yl]-2-oxoethyl rel-butanedioate]	–	–	–	2.44 ± 0.87	59.7 ± 5.15
rel-1-cyclopropyl-6-fluoro-7-[4-(4-{2-[(8R,9S,10R,11R,13R,14R,16S,17S)-9-fluoro-11,17-dihydroxy-10,13,16-trimethyl-3-oxo-6,7,8,9,10,11,12,13,14,15,16,17-dodecahydro-3H-cyclopenta[a]phenanthren-17-yl]-2-oxoethoxy}-4-oxobutanoyl)-3-methylpiperazin-1-yl]-8-methoxy-4-oxo-1,4-dihydroquinoline-3-carboxylic acid [Compound 10]	–	–	–	7.71 ± 0.57	737 ± 28
